Assay results reported in ChEMBL document CHEMBL1122832, “4-substituted 5-[m-(trifluoromethyl)phenoxy]primaquine analogues as potential antimalarial agents” (1985).
Several values for one entry are separate records, joined by “and”; a condition that tells them apart may be missing. Identical values can stand only once.

Columns and labels:
Format in all cases: functional
Plasmodium cynomolgi [1] = assay: Antimalarial activity against Plasmodium cynomolgi infected Rhesus monkeys (Macaca mulatta) at 1.0 mg/kg; cured 1 of 2
Plasmodium cynomolgi [2] = assay: Antimalarial activity against Plasmodium cynomolgi in Rhesus monkeys (Macaca mulatta) at 0.316 mg/kg; cured 0 of 2
Plasmodium cynomolgi [3] = assay: Antimalarial activity against Plasmodium cynomolgi infected Rhesus monkeys (Macaca mulatta) at 0.1 mg/kg; cured 0 of 2
Mus musculus [4] = assay: Antimalarial activity against Plasmodium berghei in mice (Mus musculus) at a dose of 40 mg/kg and activity expressed as number cures surviving 60 days
Plasmodium cynomolgi [5] = assay: Antimalarial activity against Plasmodium cynomolgi infected Rhesus monkeys (Macaca mulatta) at 0.1 mg/kg; cured 0 of 1
Mus musculus [6] = assay: Antimalarial activity against Plasmodium berghei in mice (Mus musculus) at a dose of 160 mg/kg and activity expressed as number cures surviving 60 days
Mus musculus [7] = assay: Antimalarial activity against Plasmodium berghei in mice (Mus musculus) at a dose of 640 mg/kg and activity expressed as number cures surviving 60 days
Plasmodium cynomolgi [8] = assay: Antimalarial activity against Plasmodium cynomolgi infected Rhesus monkeys (Macaca mulatta) at 1.0 mg/kg; cured 2 of 2
Mus musculus [9] = assay: Antimalarial activity against Plasmodium berghei in mice (Mus musculus) at a dose of 640 mg/kg and activity expressed as toxic deaths on days 2-5
Plasmodium cynomolgi [10] = assay: Antimalarial activity against Plasmodium cynomolgi infected Rhesus monkeys (Macaca mulatta) at 0.316 mg/kg dose; Cured 2 of 2
Mus musculus [11] = assay: Antimalarial activity against Plasmodium berghei in mice (Mus musculus) at a dose of 20 mg/kg and activity expressed as number cures surviving 60 days
Mus musculus [12] = assay: Antimalarial activity against Plasmodium berghei in mice (Mus musculus) at a dose of 160 mg/kg and activity expressed as toxic deaths on days 2-5
Mus musculus [13] = assay: Antimalarial activity against Plasmodium berghei in mice (Mus musculus) at a dose of 320 mg/kg and activity expressed as toxic deaths on days 2-5
Mus musculus [14] = assay: Mean survival time of mice(Plasmodium berghei) at a dose of 80 mg/kg, total no. of mice = 5
Mus musculus [15] = assay: Antimalarial activity against Plasmodium berghei yoelii in mice (Mus musculus) at a dose of 160 mg/kg administered by subcutaneous and activity expressed as cures; 2/25
Plasmodium cynomolgi [16] = assay: Antimalarial activity against Plasmodium cynomolgi infected Rhesus monkeys (Macaca mulatta) at 0.1 mg/kg; relapses in 2 of 2
Mus musculus [17] = assay: Antimalarial activity against Plasmodium berghei yoelii in mice (Mus musculus) at a dose of 40 mg/kg administered subcutaneously and activity expressed as cures; 5/25; settings: route subcutaneous
Mus musculus [18] = assay: Antimalarial activity against Plasmodium berghei in mice (Mus musculus) at a dose of 320 mg/kg and activity expressed as number cures surviving 60 days
Mus musculus [19] = assay: Antimalarial activity against Plasmodium berghei in mice (Mus musculus) at a dose of 80 mg/kg and activity expressed as number cures surviving 60 days
Mus musculus [20] = assay: Antimalarial activity against Plasmodium berghei yoelii in mice (Mus musculus) at a dose of 10 mg/kg administered subcutaneously and activity expressed as cures; 6/25; settings: route subcutaneous
Mus musculus [21] = assay: Mean survival time of mice(Plasmodium berghei) at a dose of 5 mg/kg, total no. of mice = 5
Mus musculus [22] = assay: Mean survival time of mice(Plasmodium berghei) at a dose of 10 mg/kg, total no. of mice = 5
Mus musculus [23] = assay: Antimalarial activity against Plasmodium berghei yoelii in mice (Mus musculus) at a dose of 2.5 mg/kg and activity expressed as toxic
Mus musculus [24] = assay: Antimalarial activity against Plasmodium berghei yoelii in mice (Mus musculus) at a dose of 40 mg/kg administered perorally and activity expressed as cures; settings: route oral
Mus musculus [25] = assay: Antimalarial activity against Plasmodium berghei yoelii in mice (Mus musculus) at a dose of 10 mg/kg administered by subcutaneous and activity expressed as cures; 10/15
Mus musculus [26] = assay: Antimalarial activity against Plasmodium berghei yoelii in mice (Mus musculus) at a dose of 160 mg/kg administered by subcutaneous and activity expressed as toxic
Mus musculus [27] = assay: Antimalarial activity against Plasmodium berghei in mice (Mus musculus) at a dose of 64 mg/kg and activity expressed as toxic deaths on days 2-5
Mus musculus [28] = assay: Antimalarial activity against Plasmodium berghei yoelii in mice (Mus musculus) at a dose of 40 mg/kg administered by subcutaneous and activity expressed as cures; 14/15
Mus musculus [29] = assay: Mean survival time of mice(Plasmodium berghei) at a dose of 40 mg/kg, total no. of mice = 5
Mus musculus [30] = assay: Mean survival time of mice(Plasmodium berghei) at a dose of 160 mg/kg, total no. of mice = 5
Mus musculus [31] = assay: Antimalarial activity against Plasmodium berghei yoelii in mice (Mus musculus) at a dose of 10 mg/kg administered by peroral and activity expressed as cures; 3/10; settings: route oral
Plasmodium cynomolgi [32] = assay: Antimalarial activity against Plasmodium cynomolgi infected Rhesus monkeys (Macaca mulatta) at 1.0 mg/kg; cured 0 of 1
Mus musculus [33] = assay: Antimalarial activity against Plasmodium berghei yoelii in mice (Mus musculus) at a dose of 2.5 mg/kg administered perorally and activity expressed as cures; 3/10; settings: route oral
Mus musculus [34] = assay: Mean survival time of mice(Plasmodium berghei) at a dose of 20 mg/kg, total no. of mice = 5
Mus musculus [35] = assay: Mean survival time of mice(Plasmodium berghei) at a dose of 320 mg/kg, total no. of mice = 5
Mus musculus [36] = assay: Antimalarial activity against Plasmodium berghei yoelii in mice (Mus musculus) at a dose of 2.5 mg/kg administered by subcutaneous and activity expressed as cures; 0/10
Mus musculus [37] = assay: Antimalarial activity against Plasmodium berghei yoelii in mice (Mus musculus) at a dose of 160 mg/kg administered subcutaneously and activity expressed as cures; settings: route subcutaneous
Plasmodium cynomolgi [38] = assay: Antimalarial activity against Plasmodium cynomolgi infected Rhesus monkeys (Macaca mulatta) at 1.0 mg/kg; relapses
Mus musculus [39] = assay: Antimalarial activity against Plasmodium berghei yoelii in mice (Mus musculus) at a dose of 40 mg/kg administered by peroral and activity expressed as cures; 4/5; settings: route oral
Mus musculus [40] = assay: Antimalarial activity against Plasmodium berghei yoelii in mice (Mus musculus) at a dose of 2.5 mg/kg administered by peroral and activity expressed as cures; 0/5; settings: route oral
Mus musculus [41] = assay: Antimalarial activity against Plasmodium berghei yoelii in mice (Mus musculus) at a dose of 2.5 mg/kg administered subcutaneously and activity expressed as cures; 0/5; settings: route subcutaneous
Mus musculus [42] = assay: Antimalarial activity against Plasmodium berghei yoelii in mice (Mus musculus) at a dose of 40 mg/kg administered by subcutaneous and activity expressed as cures; 12/15
Plasmodium cynomolgi [43] = assay: Antimalarial activity against Plasmodium cynomolgi infected Rhesus monkeys (Macaca mulatta) at 1.0 mg/kg;cured 0 of 2
Mus musculus [44] = assay: Antimalarial activity against Plasmodium berghei yoelii in mice (Mus musculus) at a dose of 10 mg/kg administered subcutaneously and activity expressed as cures; 9/15; settings: route subcutaneous
Mus musculus [45] = assay: Antimalarial activity against Plasmodium berghei yoelii in mice (Mus musculus) at a dose of 160 mg/kg administered subcutaneously and activity expressed as cures; 10/10; settings: route subcutaneous
Mus musculus [46] = assay: Antimalarial activity against Plasmodium berghei yoelii in mice (Mus musculus) at a dose of 10 mg/kg administered perorally and activity expressed as cures; 0/15; settings: route oral
Mus musculus [47] = assay: Mean survival time of mice(Plasmodium berghei) at a dose of 640 mg/kg, total no. of mice = 5
Mus musculus [48] = assay: Antimalarial activity against Plasmodium berghei yoelii in mice (Mus musculus) at a dose of 2.5 mg/kg administered by subcutaneous and activity expressed as cures; 1/5
Plasmodium cynomolgi [49] = assay: Antimalarial activity against Plasmodium cynomolgi infected Rhesus monkeys (Macaca mulatta) at 0.316 mg/kg; relapses
Plasmodium cynomolgi [50] = assay: Antimalarial activity against Plasmodium cynomolgi infected Rhesus monkeys (Macaca mulatta) at 0.316 mg/kg; cured 1 of 2
Plasmodium cynomolgi [51] = assay: Antimalarial activity as relapses in Plasmodium cynomolgi infected Rhesus monkeys (Macaca mulatta) at 0.1 mg/kg
Mus musculus [52] = assay: Antimalarial activity against Plasmodium berghei yoelii in mice (Mus musculus) at a dose of 160 mg/kg administered subcutaneously and activity expressed as cures; […]; settings: route subcutaneous
Mus musculus [53] = assay: Antimalarial activity against Plasmodium berghei yoelii in mice (Mus musculus) at a dose of 40 mg/kg administered subcutaneously and activity expressed as cures; 9/10; settings: route subcutaneous
Mus musculus [54] = assay: Antimalarial activity against Plasmodium berghei yoelii in mice (Mus musculus) at a dose of 10 mg/kg administered by peroral and activity expressed as cures; 5/5; settings: route oral
Mus musculus [55] = assay: Antimalarial activity against Plasmodium berghei yoelii in mice (Mus musculus) at a dose of 10 mg/kg administered by subcutaneous and activity expressed as cures; 8/10

## COc1cc(NC(C)CCCN)c2ncccc2c1 (stereo unspecified) [PRIMAQUINE]
Plasmodium cynomolgi [1]
  Cures: 1
Plasmodium cynomolgi [2]
  Cures: 0
Plasmodium cynomolgi [3]
  Cures: 0

## COc1cc(NC(C)CCCN)c2nccc(C)c2c1Oc1cccc(C(F)(F)F)c1 (stereo unspecified)
Mus musculus [4]
  Cures: 5
Plasmodium cynomolgi [5]
  Cures: 0
Mus musculus [6]
  Cures: 5
Mus musculus [7]
  Cures: 1
Plasmodium cynomolgi [8]
  Cures: 2
Mus musculus [9]
  Toxic: 4
Plasmodium cynomolgi [10]
  Cures: 2
Mus musculus [11]
  Cures: 5

## COc1cc(NC(C)CCCN)c2ncccc2c1.O=P(O)(O)O.O=P(O)(O)O (stereo unspecified) [PRIMAQUINE PHOSPHATE]
Mus musculus [12]
  Toxic: 2
Mus musculus [13]
  Toxic: 5
Mus musculus [14]
  Delta MST: 9
Mus musculus [9]
  Toxic: 5

## CCc1ccnc2c(NC(C)CCCN)cc(OC)c(Oc3cccc(C(F)(F)F)c3)c12 (stereo unspecified)
Mus musculus [4]
  Cures: 4
Mus musculus [12]
  Toxic: 3
Mus musculus [15]
  Cures: 2
Mus musculus [6]
  Cures: 5
Plasmodium cynomolgi [16]
  Relapses: 20
Mus musculus [17]
  Cures: 5
Mus musculus [7]
  Cures: 1
Plasmodium cynomolgi [3]
  Cures: 0
Plasmodium cynomolgi [8]
  Cures: 2
Mus musculus [18]
  Cures: 5
Mus musculus [19]
  Cures: 4
Mus musculus [20]
  Cures: 6
Mus musculus [21]
  Delta MST: 1.7
Plasmodium cynomolgi [10]
  Cures: 2
Mus musculus [22]
  Delta MST: 5.3
Mus musculus [11]
  Cures: 3

## COc1cc(NC(C)CCCN)c2nccc(CO)c2c1Oc1cccc(C(F)(F)F)c1 (stereo unspecified)
Mus musculus [23]
  Toxic: 7
Mus musculus [24]
  Cures: 10
Mus musculus [25]
  Cures: 10
Mus musculus [26]
  Toxic: 2
Mus musculus [27]
  Toxic: 4
Mus musculus [28]
  Cures: 14
Mus musculus [29]
  Delta MST: 3.8
Mus musculus [30]
  Delta MST: 14.8
Mus musculus [31]
  Cures: 3
Plasmodium cynomolgi [32]
  Cures: 0
Mus musculus [33]
  Cures: 3
Mus musculus [34]
  Delta MST: 3.6
Mus musculus [35]
  Delta MST: 13.1
Mus musculus [36]
  Cures: 0
Mus musculus [19]
  Cures: 1
Mus musculus [37]
  Cures: 3
Mus musculus [21]
  Delta MST: 0.6
Mus musculus [22]
  Delta MST: 1.4

## COc1cc(NC(C)CCCN)c2nccc(C(OC)OC)c2c1Oc1cccc(C(F)(F)F)c1 (stereo unspecified)
Plasmodium cynomolgi [38]
  Relapses: 24 and 44
Mus musculus [6]
  Cures: 3
Mus musculus [39]
  Cures: 4
Mus musculus [29]
  Delta MST: 8.5
Mus musculus [40]
  Cures: 0
Mus musculus [34]
  Delta MST: 5.5
Mus musculus [41]
  Cures: 0
Mus musculus [42]
  Cures: 12
Mus musculus [18]
  Cures: 2
Plasmodium cynomolgi [43]
  Cures: 0
Mus musculus [9]
  Toxic: 5
Mus musculus [19]
  Cures: 1
Mus musculus [44]
  Cures: 9
Mus musculus [45]
  Cures: 10
Mus musculus [21]
  Delta MST: 1.9
Mus musculus [22]
  Delta MST: 2.5
Mus musculus [46]
  Cures: 0

## C=Cc1ccnc2c(NC(C)CCCN)cc(OC)c(Oc3cccc(C(F)(F)F)c3)c12 (stereo unspecified)
Plasmodium cynomolgi [38]
  Relapses: 12 and 19
Mus musculus [29]
  Delta MST: -0.1
Mus musculus [47]
  Delta MST: 8.1
Mus musculus [30]
  Delta MST: 3.7
Plasmodium cynomolgi [43]
  Cures: 0

## COCc1ccnc2c(NC(C)CCCN)cc(OC)c(Oc3cccc(C(F)(F)F)c3)c12 (stereo unspecified)
Mus musculus [48]
  Cures: 1
Plasmodium cynomolgi [49]
  Relapses: 28
Mus musculus [4]
  Cures: 5
Plasmodium cynomolgi [50]
  Cures: 1
Mus musculus [6]
  Cures: 4
Plasmodium cynomolgi [51]
  Relapses: 8
Mus musculus [52]
  Cures: 5
Mus musculus [39]
  Cures: 4
Mus musculus [40]
  Cures: 0
Mus musculus [7]
  Cures: 2
Plasmodium cynomolgi [3]
  Cures: 0
Mus musculus [53]
  Cures: 9
Plasmodium cynomolgi [8]
  Cures: 2
Mus musculus [54]
  Cures: 5
Mus musculus [18]
  Cures: 4
Mus musculus [19]
  Cures: 5
Mus musculus [55]
  Cures: 8
Mus musculus [21]
  Delta MST: 2.8
Mus musculus [22]
  Delta MST: 6.6
Mus musculus [11]
  Cures: 1
